In ChEMBL document CHEMBL1201862, “PubChem BioAssay data set” (2004):
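Five compound concentrations were applied to cells in 96-well plates for 48 hours; endpoints were derived by simple linear interpolation of the resulting dose-response curve. GI50 = concentration required for 50% inhibition of growth.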 Active and inactive are the calls of the source. Cut-off read from the data, not from the text of the source: active = GI50 up to about 1.1 µM and inactive = higher.

What was measured:
Assay in all cases: inhibition of tumour cell growth, NCI panel, 48 h
MOLT-4 = test system: MOLT-4
TK-10 = test system: TK-10
COLO 205 = test system: COLO 205
UO-31 = test system: UO-31
OVCAR-4 = test system: OVCAR-4
786-0 = test system: 786-0
SNB-75 = test system: SNB-75
HCT-116 = test system: HCT-116
SN12C = test system: SN12C
SW-620 = test system: SW-620
SR = test system: SR
NCI-H23 = test system: NCI-H23
MCF7 = test system: MCF7
OVCAR-5 = test system: OVCAR-5
CAKI-1 = test system: CAKI-1
NCI-H226 = test system: NCI-H226
A498 = test system: A498
KM12 = test system: KM12
SK-OV-3 = test system: SK-OV-3
HCC 2998 = test system: HCC 2998

Compound | GI50 (MOLT-4) | GI50 (TK-10) | GI50 (COLO 205) | GI50 (UO-31) | GI50 (OVCAR-4) | GI50 (786-0) | GI50 (SNB-75) | GI50 (HCT-116) | GI50 (SN12C) | GI50 (SW-620) | GI50 (SR) | GI50 (NCI-H23) | GI50 (MCF7) | GI50 (OVCAR-5) | GI50 (CAKI-1) | GI50 (NCI-H226) | GI50 (A498) | GI50 (KM12) | GI50 (SK-OV-3) | GI50 (HCC 2998)
CC(C)C(=O)OCN(C)c1nc(N(C)COC(=O)C(C)C)nc(N(C)COC(=O)C(C)C)n1 | 22.3 µM (inactive) | 85.7 µM (inactive) | 20.1 µM (inactive) | 22.2 µM (inactive) | 23.8 µM (inactive) | 28.5 µM (inactive) | 17.8 µM (inactive) | 32.1 µM (inactive) | 28.4 µM (inactive) | 21.6 µM (inactive) | 22.8 µM (inactive) | 20.7 µM (inactive) | 35.6 µM (inactive) | 27.7 µM (inactive) | 34.5 µM (inactive) | 41.4 µM (inactive) | 36 µM (inactive) | 24.2 µM (inactive) | – | –
N=C(N)SCCc1ccncc1 | > 100 µM (inactive) | > 100 µM (inactive) | > 100 µM (inactive) | > 100 µM (inactive) | > 100 µM (inactive) | > 100 µM (inactive) | > 100 µM (inactive) | > 100 µM (inactive) | > 100 µM (inactive) | > 100 µM (inactive) | > 100 µM (inactive) | > 100 µM (inactive) | > 100 µM (inactive) | > 100 µM (inactive) | > 100 µM (inactive) | > 100 µM (inactive) | > 100 µM (inactive) | > 100 µM (inactive) | > 100 µM (inactive) | –
CCOC(=O)CNC(=O)C(C)NC(=O)C(NC(=O)CC(c1ncc[nH]1)c1ncc[nH]1)C(C)CC (stereo not drawn) | > 100 µM (inactive) | > 100 µM (inactive) | > 100 µM (inactive) | > 100 µM (inactive) | 63.7 µM (inactive) | > 100 µM (inactive) | > 100 µM (inactive) | > 100 µM (inactive) | > 100 µM (inactive) | > 100 µM (inactive) | > 100 µM (inactive) | > 100 µM (inactive) | > 100 µM (inactive) | > 100 µM (inactive) | > 100 µM (inactive) | – | > 100 µM (inactive) | > 100 µM (inactive) | > 100 µM (inactive) | > 100 µM (inactive)
N=C1/C(=C/c2ccc(F)cc2)C(=O)N=C2SC=NN12 | > 100 µM (inactive) | > 100 µM (inactive) | > 100 µM (inactive) | > 100 µM (inactive) | > 100 µM (inactive) | > 100 µM (inactive) | 92.3 µM (inactive) | > 100 µM (inactive) | > 100 µM (inactive) | > 100 µM (inactive) | 92.3 µM (inactive) | > 100 µM (inactive) | > 100 µM (inactive) | > 100 µM (inactive) | > 100 µM (inactive) | > 100 µM (inactive) | – | > 100 µM (inactive) | > 100 µM (inactive) | > 100 µM (inactive)
C=C(Br)C(C)(Cl)CCC(Br)C(C)(C)Cl (stereo not drawn) | 32.3 µM (inactive) | > 100 µM (inactive) | 27 µM (inactive) | > 100 µM (inactive) | 47.8 µM (inactive) | 20.6 µM (inactive) | – | 34.9 µM (inactive) | 40 µM (inactive) | 36.1 µM (inactive) | > 100 µM (inactive) | 41.9 µM (inactive) | 55.3 µM (inactive) | 56.4 µM (inactive) | > 100 µM (inactive) | 25.6 µM (inactive) | > 100 µM (inactive) | 34.2 µM (inactive) | > 100 µM (inactive) | > 100 µM (inactive)
CCN1CCC(O)(c2ccc(Oc3ccc(C)cc3)cc2)C(C(=O)c2ccc(Oc3ccc(C)cc3)cc2)C1 (stereo not drawn) | 10.3 µM (inactive) | 8.61 µM (inactive) | 12.1 µM (inactive) | 3.77 µM (inactive) | 1.94 µM (inactive) | 4.99 µM (inactive) | 7.16 µM (inactive) | 6.41 µM (inactive) | 14.8 µM (inactive) | 12.9 µM (inactive) | – | 13.7 µM (inactive) | 2.42 µM (inactive) | 13.9 µM (inactive) | 12.9 µM (inactive) | 14.1 µM (inactive) | 0.426 µM (active) | 6.37 µM (inactive) | 16.1 µM (inactive) | 7.91 µM (inactive)
O=C(CCN1CCN2c3ccccc3CCC2C1)c1ccc(F)cc1 (stereo not drawn) | 57.3 µM (inactive) | 29.6 µM (inactive) | 22 µM (inactive) | 17.6 µM (inactive) | 20 µM (inactive) | 18.9 µM (inactive) | 27.2 µM (inactive) | 37.5 µM (inactive) | 48.6 µM (inactive) | 10.3 µM (inactive) | 28.4 µM (inactive) | 36.1 µM (inactive) | 19.8 µM (inactive) | 23.1 µM (inactive) | 23.3 µM (inactive) | 34.8 µM (inactive) | > 100 µM (inactive) | 41.1 µM (inactive) | 68.2 µM (inactive) | –
COc1ccc(-c2c(-c3ccccc3)c(C)nc3[nH]c(=S)[nH]c(=S)c23)cc1OC | 12 µM (inactive) | 45.7 µM (inactive) | 25.3 µM (inactive) | 21.6 µM (inactive) | > 100 µM (inactive) | 35.6 µM (inactive) | 42 µM (inactive) | 22 µM (inactive) | 21.6 µM (inactive) | 61.7 µM (inactive) | – | 47.4 µM (inactive) | 33.8 µM (inactive) | 64.4 µM (inactive) | 47 µM (inactive) | 38 µM (inactive) | 28.2 µM (inactive) | 18.5 µM (inactive) | 37 µM (inactive) | 37.6 µM (inactive)
C/C(Cl)=N\OC(=O)Nc1ccccc1C(F)(F)F | 18.5 µM (inactive) | 15.4 µM (inactive) | 21.6 µM (inactive) | 64.9 µM (inactive) | 13.8 µM (inactive) | 17.9 µM (inactive) | 20.9 µM (inactive) | 33.4 µM (inactive) | > 100 µM (inactive) | 17.9 µM (inactive) | 17.1 µM (inactive) | > 100 µM (inactive) | 14.9 µM (inactive) | 42.6 µM (inactive) | > 100 µM (inactive) | – | > 100 µM (inactive) | > 100 µM (inactive) | > 100 µM (inactive) | > 100 µM (inactive)
CSc1nc(NCc2ccccc2)c2cnn(COCCO)c2n1 | 26.3 µM (inactive) | 61.9 µM (inactive) | 29.9 µM (inactive) | 35.9 µM (inactive) | 29.4 µM (inactive) | > 100 µM (inactive) | 0.152 µM (active) | 62.8 µM (inactive) | 75 µM (inactive) | > 100 µM (inactive) | 69.7 µM (inactive) | 24.5 µM (inactive) | 45.3 µM (inactive) | > 100 µM (inactive) | 61.9 µM (inactive) | 55.5 µM (inactive) | – | 80 µM (inactive) | > 100 µM (inactive) | –
COC(=O)C1CCCN1C(=O)OC(C)(C)C (stereo not drawn) | 23.3 µM (inactive) | > 100 µM (inactive) | > 100 µM (inactive) | > 100 µM (inactive) | > 100 µM (inactive) | > 100 µM (inactive) | > 100 µM (inactive) | > 100 µM (inactive) | > 100 µM (inactive) | > 100 µM (inactive) | > 100 µM (inactive) | > 100 µM (inactive) | > 100 µM (inactive) | > 100 µM (inactive) | > 100 µM (inactive) | > 100 µM (inactive) | – | > 100 µM (inactive) | > 100 µM (inactive) | > 100 µM (inactive)
COc1ccc2c(c1)C(=O)CC(C(N)=O)C2 (stereo not drawn) | > 100 µM (inactive) | > 100 µM (inactive) | > 100 µM (inactive) | > 100 µM (inactive) | > 100 µM (inactive) | > 100 µM (inactive) | 53.1 µM (inactive) | > 100 µM (inactive) | > 100 µM (inactive) | > 100 µM (inactive) | > 100 µM (inactive) | > 100 µM (inactive) | > 100 µM (inactive) | > 100 µM (inactive) | > 100 µM (inactive) | > 100 µM (inactive) | – | > 100 µM (inactive) | > 100 µM (inactive) | > 100 µM (inactive)
COc1cc2c(cc1OC)C(=O)/C(=C/c1ccc(N(C)C)cc1)CC2 | > 10 µM (inactive) | > 10 µM (inactive) | > 10 µM (inactive) | > 10 µM (inactive) | > 10 µM (inactive) | > 10 µM (inactive) | – | > 10 µM (inactive) | > 10 µM (inactive) | > 10 µM (inactive) | > 10 µM (inactive) | > 10 µM (inactive) | > 10 µM (inactive) | > 10 µM (inactive) | > 10 µM (inactive) | > 10 µM (inactive) | – | > 10 µM (inactive) | > 10 µM (inactive) | > 10 µM (inactive)
CCC(CC)C(=O)OC[n+]1ccc(-c2c(COC(=O)NC(C)C)c(COC(=O)NC(C)C)c3n2CCC3)cc1 | > 100 µM (inactive) | – | > 100 µM (inactive) | > 100 µM (inactive) | > 100 µM (inactive) | > 100 µM (inactive) | – | – | > 100 µM (inactive) | > 100 µM (inactive) | 36.7 µM (inactive) | > 100 µM (inactive) | > 100 µM (inactive) | – | > 100 µM (inactive) | > 100 µM (inactive) | > 100 µM (inactive) | – | > 100 µM (inactive) | > 100 µM (inactive)
C=CCSc1nnc2cc(CN3CCCC3)c(-c3ccc(Cl)cc3)nn12 | 26 µM (inactive) | 20.7 µM (inactive) | 17.6 µM (inactive) | 16 µM (inactive) | 20.3 µM (inactive) | 17.1 µM (inactive) | 19.9 µM (inactive) | 14.5 µM (inactive) | 16.8 µM (inactive) | 26.5 µM (inactive) | 32.6 µM (inactive) | 23.7 µM (inactive) | 16.1 µM (inactive) | 18.3 µM (inactive) | 26.5 µM (inactive) | 11.2 µM (inactive) | 15.9 µM (inactive) | 24.8 µM (inactive) | 20.2 µM (inactive) | –
